Measurements as given in PubChem BioAssay AID296 (DTP/NCI, 2004).
Inconclusive results are not listed. Where a SMILES comes first, the peptide text is derived from it. The star is where a group is joined. Trt = c1ccc(C(c2ccccc2)(c2ccccc2)*)cc1; Cbz = O=C(OCc1ccccc1)*; Bn = c1ccc(C*)cc1; βAla = NCCC(=O)O

Test system: MX-1 breast xenograft, nude mice, tumor weight T/C
Assay: NCI In Vivo Anticancer Drug Screen. Data for tumor model Human Mammary Carcinoma MX-1 Xenograft (intrarenal inoculation) in NU/NU Swiss (nude) mice
Conditions: endpoint: mean tumor weight change, higher = larger tumour
In short: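 Mice carrying the implanted tumor receive either test agent or vehicle. Tumor size or survival is then recorded for both groups. Results are stated as the treated-to-control quotient.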

[1] = dose: 300.0 mg/kg/injection, schedule: Q04DX003 (sc), vehicle: Klucel (hydroxypropylcellulose) (HPC)
[2] = dose: 600.0 mg/kg/injection, schedule: Q04DX003 (sc), vehicle: Klucel (hydroxypropylcellulose) (HPC)

SMILES: NCCc1cc(O)c(O)c(O)c1
- T/C (dose: 100.0 mg/kg/injection, schedule: Q04DX003 (sc), vehicle: saline): 59 % of control
- T/C (dose: 200.0 mg/kg/injection, schedule: Q04DX003 (sc), vehicle: saline): 150 % of control
- T/C (dose: 400.0 mg/kg/injection, schedule: Q04DX003 (sc), vehicle: saline): 154 % of control
- T/C (dose: 800.0 mg/kg/injection, schedule: Q04DX003 (sc), vehicle: saline): 72 % of control

SMILES: Cc1c2cc[n+](CCN3CCCCC3)cc2c(C)c2c1[nH]c1ccc(O)cc12
- T/C (dose: 25.0 mg/kg/injection, schedule: Q04DX003 (sc), vehicle: suspension in saline): 159 % of control
- T/C (dose: 50.0 mg/kg/injection, schedule: Q04DX003 (sc), vehicle: suspension in saline): 163 % of control
- T/C (dose: 100.0 mg/kg/injection, schedule: Q04DX003 (sc), vehicle: suspension in saline): 159 % of control

SMILES: COC(=O)C(CSC(c1ccccc1)(c1ccccc1)c1ccccc1)NC(=O)C(CSCc1ccccc1)NC(=O)CCNC(=O)OCc1ccccc1 (stereo not drawn) ({Cbz-βAla}-Cys(Bn)-Cys(Trt)-OMe; configuration not given here)
- T/C (dose: 75.0 mg/kg/injection, schedule: Q04DX003 (sc), vehicle: Klucel (hydroxypropylcellulose) (HPC)): 99 % of control
- T/C (dose: 150.0 mg/kg/injection, schedule: Q04DX003 (sc), vehicle: Klucel (hydroxypropylcellulose) (HPC)): 49 % of control
- T/C [1]: 63 % of control
- T/C [2]: 60 % of control

SMILES: O=C(C#Cc1ccccc1)c1ccccc1
- T/C (dose: 50.0 mg/kg/injection, schedule: Q04DX003 (sc), vehicle: Klucel (hydroxypropylcellulose) (HPC)): 76 % of control
- T/C (dose: 100.0 mg/kg/injection, schedule: Q04DX003 (sc), vehicle: Klucel (hydroxypropylcellulose) (HPC)): 113 % of control
- T/C (dose: 200.0 mg/kg/injection, schedule: Q04DX003 (sc), vehicle: Klucel (hydroxypropylcellulose) (HPC)): 87 % of control
- T/C [1]: 87 % of control
- T/C (dose: 400.0 mg/kg/injection, schedule: Q04DX003 (sc), vehicle: Klucel (hydroxypropylcellulose) (HPC)): 42 % of control
- T/C [2]: 110 % of control
- T/C (dose: 1200.0 mg/kg/injection, schedule: Q04DX003 (sc), vehicle: Klucel (hydroxypropylcellulose) (HPC)): 104 % of control

SMILES: CCCC(=O)O
- T/C (dose: 100.0 mg/kg/injection, schedule: Q01DX010 (sc), vehicle: saline): 104 % of control

SMILES: CCOC(=O)Nc1cc2c(c(N)n1)N=C(c1ccccc1)CN2
- T/C (dose: 6.25 mg/kg/injection, schedule: Q04DX003 (sc), vehicle: saline with Tween-80): 80 % of control
- T/C (dose: 12.5 mg/kg/injection, schedule: Q04DX003 (sc), vehicle: saline with Tween-80): 83 % of control
- T/C (dose: 25.0 mg/kg/injection, schedule: Q04DX003 (sc), vehicle: saline with Tween-80): 68 % of control

SMILES: CC1=NN(c2cccc(S(=O)(=O)O)c2)C(=O)C1N=Nc1cc(Cl)cc(S(=O)(=O)O)c1O.CC1=NN(c2cccc(S(=O)(=O)O)c2)C(=O)C1N=Nc1cc(Cl)cc(S(=O)(=O)O)c1O.[Cr] (stereo not drawn)
- T/C (dose: 150.0 mg/kg/injection, schedule: Q04DX003 (ip), vehicle: saline): 151 % of control
- T/C (dose: 300.0 mg/kg/injection, schedule: Q04DX003 (ip), vehicle: saline): 94 % of control
- T/C (dose: 600.0 mg/kg/injection, schedule: Q04DX003 (ip), vehicle: saline): 50 % of control

SMILES: CC(C)[C@](O)(C(=O)OCC1=CCN2CC[C@@H](O)[C@@H]12)[C@H](C)O
- T/C (dose: 300.0 mg/kg/injection, schedule: Q04DX003 (sc), vehicle: water): 56 % of control
- T/C (dose: 600.0 mg/kg/injection, schedule: Q04DX003 (sc), vehicle: water): 65 % of control
- T/C (dose: 1200.0 mg/kg/injection, schedule: Q04DX003 (sc), vehicle: water): 53 % of control
- T/C (dose: 2400.0 mg/kg/injection, schedule: Q04DX003 (sc), vehicle: water): 51 % of control

SMILES: [Cl][Mn][Cl]
- T/C (dose: 37.5 mg/kg/injection, schedule: Q04DX003 (sc), vehicle: saline): 115 % of control
- T/C (dose: 75.0 mg/kg/injection, schedule: Q04DX003 (sc), vehicle: saline): 109 % of control
- T/C (dose: 150.0 mg/kg/injection, schedule: Q04DX003 (sc), vehicle: saline): 104 % of control

SMILES: CCCCCCCC(=O)N/N=C(\CO)[C@]1(O)Cc2c(O)c3c(c(O)c2[C@@H](OC2CC(N)C(O)C(C)O2)C1)C(=O)c1c(OC)cccc1C3=O (stereo partly drawn)
- T/C (dose: 25.0 mg/kg/injection, schedule: Q01DX010 (sc), vehicle: water): 227 % of control
- T/C (dose: 50.0 mg/kg/injection, schedule: Q01DX010 (sc), vehicle: water): 230 % of control
- T/C (dose: 100.0 mg/kg/injection, schedule: Q01DX010 (sc), vehicle: water): 370 % of control

SMILES: CCN1/C(=C/C=C/C=C/c2sc3ccccc3[n+]2CC)Sc2ccccc21
- T/C (dose: 1.5 mg/kg/injection, schedule: Q04DX003 (sc), vehicle: suspension in saline): 56 % of control
- T/C (dose: 3.0 mg/kg/injection, schedule: Q04DX003 (sc), vehicle: suspension in saline): 35 % of control
- T/C (dose: 6.0 mg/kg/injection, schedule: Q04DX003 (sc), vehicle: suspension in saline): 71 % of control
